Measured values as given in article PMC4769319, “Cohesin Releases DNA through Asymmetric ATPase-Driven Ring Opening” (Molecular Cell, 2016).

Target: T1, Smc1/Smc3 heterodimer with Scc1-C (cohesin) (Saccharomyces cerevisiae, UniProt P32908+P47037, P47037:K38I, form not given)
T1 construct: N-terminal tags; Sf9 insect cells; fluorescently labelled for MST; with Sister chromatid cohesion protein 1
T1 sequence (P32908 1-1225): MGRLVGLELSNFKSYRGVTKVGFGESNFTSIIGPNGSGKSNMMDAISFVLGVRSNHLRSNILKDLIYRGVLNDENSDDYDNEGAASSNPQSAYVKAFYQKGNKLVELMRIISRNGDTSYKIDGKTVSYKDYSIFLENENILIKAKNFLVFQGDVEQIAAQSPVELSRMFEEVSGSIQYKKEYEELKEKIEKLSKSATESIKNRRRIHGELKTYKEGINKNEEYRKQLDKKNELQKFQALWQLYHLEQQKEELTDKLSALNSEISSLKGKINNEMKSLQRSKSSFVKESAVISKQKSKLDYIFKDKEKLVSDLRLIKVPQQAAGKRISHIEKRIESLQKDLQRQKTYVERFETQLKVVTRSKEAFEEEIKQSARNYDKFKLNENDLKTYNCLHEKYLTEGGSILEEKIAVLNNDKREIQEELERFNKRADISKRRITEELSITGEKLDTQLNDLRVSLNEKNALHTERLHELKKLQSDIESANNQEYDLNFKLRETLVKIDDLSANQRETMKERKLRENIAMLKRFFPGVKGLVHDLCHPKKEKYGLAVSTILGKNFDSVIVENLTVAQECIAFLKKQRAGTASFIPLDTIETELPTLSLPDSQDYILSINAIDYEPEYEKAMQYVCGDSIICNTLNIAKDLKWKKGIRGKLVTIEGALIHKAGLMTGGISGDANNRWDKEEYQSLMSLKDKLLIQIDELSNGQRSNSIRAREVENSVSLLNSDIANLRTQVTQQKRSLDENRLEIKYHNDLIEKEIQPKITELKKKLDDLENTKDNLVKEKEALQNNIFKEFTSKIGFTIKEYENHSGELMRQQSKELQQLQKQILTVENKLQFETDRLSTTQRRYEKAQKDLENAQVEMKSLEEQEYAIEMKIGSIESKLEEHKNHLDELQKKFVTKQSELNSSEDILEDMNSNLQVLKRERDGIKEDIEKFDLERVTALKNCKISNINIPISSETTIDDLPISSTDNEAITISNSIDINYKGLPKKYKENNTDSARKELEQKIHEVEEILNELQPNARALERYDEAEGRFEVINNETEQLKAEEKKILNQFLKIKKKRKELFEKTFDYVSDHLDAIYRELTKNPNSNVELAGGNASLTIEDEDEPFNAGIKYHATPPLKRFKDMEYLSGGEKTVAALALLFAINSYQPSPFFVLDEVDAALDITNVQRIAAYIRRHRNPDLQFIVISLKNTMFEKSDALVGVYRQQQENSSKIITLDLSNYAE
T1 sequence (P47037 1-1230 K38I): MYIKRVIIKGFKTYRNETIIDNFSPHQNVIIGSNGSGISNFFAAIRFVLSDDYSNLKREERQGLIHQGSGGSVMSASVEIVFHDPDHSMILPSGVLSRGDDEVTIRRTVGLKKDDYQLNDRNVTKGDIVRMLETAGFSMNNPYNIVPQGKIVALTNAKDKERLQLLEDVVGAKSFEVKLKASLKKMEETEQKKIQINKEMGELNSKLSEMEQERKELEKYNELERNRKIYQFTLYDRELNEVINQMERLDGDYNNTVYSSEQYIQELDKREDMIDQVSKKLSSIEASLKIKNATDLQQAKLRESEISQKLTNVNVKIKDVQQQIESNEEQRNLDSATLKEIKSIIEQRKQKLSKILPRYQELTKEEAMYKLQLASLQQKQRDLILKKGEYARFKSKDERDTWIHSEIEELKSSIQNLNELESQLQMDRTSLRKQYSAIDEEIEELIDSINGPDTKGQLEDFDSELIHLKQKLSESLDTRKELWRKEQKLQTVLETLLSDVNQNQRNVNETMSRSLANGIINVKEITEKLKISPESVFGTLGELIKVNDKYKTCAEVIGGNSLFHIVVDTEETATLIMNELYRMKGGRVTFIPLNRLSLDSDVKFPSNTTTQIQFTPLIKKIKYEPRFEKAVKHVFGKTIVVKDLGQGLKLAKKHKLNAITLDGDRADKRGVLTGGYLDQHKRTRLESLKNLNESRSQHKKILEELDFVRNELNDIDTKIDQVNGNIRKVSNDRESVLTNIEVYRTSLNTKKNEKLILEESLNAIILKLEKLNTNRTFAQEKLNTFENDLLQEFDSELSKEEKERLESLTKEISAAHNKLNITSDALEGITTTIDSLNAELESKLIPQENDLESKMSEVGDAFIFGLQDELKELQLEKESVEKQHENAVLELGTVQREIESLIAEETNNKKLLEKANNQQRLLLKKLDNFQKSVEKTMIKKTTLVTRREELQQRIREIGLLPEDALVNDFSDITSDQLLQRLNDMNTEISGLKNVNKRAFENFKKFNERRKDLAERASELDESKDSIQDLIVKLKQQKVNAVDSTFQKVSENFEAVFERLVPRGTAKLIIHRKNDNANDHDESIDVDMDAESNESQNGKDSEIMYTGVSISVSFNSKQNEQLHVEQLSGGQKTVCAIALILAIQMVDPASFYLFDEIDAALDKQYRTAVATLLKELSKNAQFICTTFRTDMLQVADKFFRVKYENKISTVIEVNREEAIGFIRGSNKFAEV
T1 sequence (Q12158 1-566 partner): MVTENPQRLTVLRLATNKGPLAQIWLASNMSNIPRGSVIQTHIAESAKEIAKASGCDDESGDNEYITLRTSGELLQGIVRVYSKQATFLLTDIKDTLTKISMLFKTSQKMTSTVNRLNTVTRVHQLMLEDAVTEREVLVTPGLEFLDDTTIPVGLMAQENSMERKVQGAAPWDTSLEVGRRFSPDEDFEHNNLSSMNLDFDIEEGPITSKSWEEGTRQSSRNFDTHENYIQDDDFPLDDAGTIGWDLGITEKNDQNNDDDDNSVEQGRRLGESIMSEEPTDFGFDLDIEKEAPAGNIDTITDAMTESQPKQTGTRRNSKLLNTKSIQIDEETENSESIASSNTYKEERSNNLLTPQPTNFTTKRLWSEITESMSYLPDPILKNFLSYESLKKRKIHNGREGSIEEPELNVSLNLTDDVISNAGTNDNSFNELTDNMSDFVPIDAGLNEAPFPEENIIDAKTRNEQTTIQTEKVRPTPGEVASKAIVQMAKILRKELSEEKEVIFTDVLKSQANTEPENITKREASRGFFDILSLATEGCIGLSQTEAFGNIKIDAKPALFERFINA
Assay: microscale thermophoresis
Conditions: fluorescently labelled protein; Smc1 co-purified with Scc1-C, plus Smc3; binding abrogated

Compound	microscale thermophoresis
Nc1ncnc2c1ncn2[C@@H]1O[C@H](COP(=O)(O)OP(=O)(O)O)[C@@H](O)[C@H]1O [ADP]	each of the Walker A mutations efficiently abrogated binding to ATP and ADP
Nc1ncnc2c1ncn2[C@@H]1O[C@H](COP(=O)(O)OP(=O)(O)OP(=O)(O)O)[C@@H](O)[C@H]1O [ATP]	each of the Walker A mutations efficiently abrogated binding to ATP and ADP
